According to US4024224A, “14-Aminodaunomycins, their preparation and use” (priority 1974, dated 1977):
In brackets after ≈: the same amount, converted by molar mass. Like-named read-outs stand apart in the source and are kept apart here.

Tests used:
[1] = Proliferation of uninfected mouse embryo fibroblasts (MEF); type: cell-based; conditions: mouse, mouse embryo fibroblasts; calculated on dose-effects lines; uninfected MEF, 3 days treatment; read-out: MEF proliferation ID 50 (Inhibiting Dose 50%)
Mouse Embryo Fibroblasts = experiment: as above; type: cell-based; conditions: Mus musculus, Fibroblast, 72 h, uninfected MEF, 3 days treatment, read-out: MEF No. of cells
[2] = tested on: Moloney Sarcoma Virus (MSV); experiment: Inhibition of MSV-M foci formation in mouse embryo fibroblasts; type: cell-based; conditions: Fibroblast, 120 h, 3 days treatment
ascites Sarcoma 180 = experiment: Antitumor activity and toxicity on ascites Sarcoma 180 in CD 1 mice; type: in vivo; conditions: for % LTS: 60 days; for LTS (Long Term Survivors after 60 days): survivors/total; for Toxic Deaths: deaths/total
Method in brief: (§1)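 CD 1 mice (3 months old) given 10^6 Sarcoma 180 ascites cells i.p.; compounds in water or 5% ethanol, diluted in Ringer's, dosed i.p. 1 day post-implant. Efficacy taken as maximum increase in median survival time versus untreated controls over the dose range; toxicity by autopsy (spleen size reduction); long-term survivors tumor-free at 60 days.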

[3] = as above; type: in vivo; conditions: mouse, in vivo, ip, read-out: % Toxic Deaths
Method in brief: as §1

Solid Sarcoma 180 = experiment: Antitumor activity and toxicity on solid Sarcoma 180 in CD 1 mice; type: in vivo; conditions: for Tumor Volume T/C %: 11th day; for Toxic Deaths: deaths/total
Method: The toxicity of the test compounds was evaluated by macroscopic autoptic examination mainly in terms of reduction in spleen size. The comparison of the effectiveness of the test compounds is based on the maximum increase in median survival time, as compared to untreated controls, over the dose range used. The number of Long Term Survivors (LTS) refers to tumor-free mice at the end of the experiment (60 days). Solid Sarcoma 180 was implanted subcutaneously by trocar in the flank of CD 1 mice according to standard methods. The mice were treated i.v. for 5 consecutive days, starting 1 day after the tumor implant. On the 11th day the tumor volume was measured by means of a caliper and evaluated according to the formula (a^2 × b)/2, a and b being the minimum and the maximum diameters respectively.

[4] = 0.2 mg./kg. i.p. 1 day after tumor implant
[5] = 1 mg./kg. i.p. 1 day after tumor implant
[6] = 5 mg./kg. i.p. 1 day after tumor implant
[7] = 12.5 mg./kg. i.p. 1 day after tumor implant
[8] = 25 mg./kg. i.p. 1 day after tumor implant
[9] = 50 mg./kg. i.p. 1 day after tumor implant
[10] = 75 mg./kg. i.p. 1 day after tumor implant
[11] = 100 mg./kg. i.p. 1 day after tumor implant
[12] = 200 mg./kg. i.p. 1 day after tumor implant
[13] = 12.5 mg./kg. i.v. for 5 consecutive days
[14] = 25 mg./kg. i.v. for 5 consecutive days
[15] = 50 mg./kg. i.v. for 5 consecutive days

COc1cccc2c1C(=O)c1c(O)c3c(c(O)c1C2=O)C[C@@](O)(C(=O)CN(CCO)CCO)C[C@@H]3O[C@H]1C[C@H](N)[C@H](O)[C@H](C)O1 [14-diethanolaminodaunomycin]
IC50 at 72 h [1]: 0.13 µg/mL (≈ 0.206 µM) | activity at 0.0062 µg/mL (Mouse Embryo Fibroblasts; dose 0.0062 μg/ml): 100% | activity at 0.025 µg/mL (Mouse Embryo Fibroblasts; dose 0.0250 μg/ml): 95% | activity at 0.1 µg/mL (Mouse Embryo Fibroblasts; dose 0.1 μg/ml): 56% | activity at 0.4 µg/mL (Mouse Embryo Fibroblasts; dose 0.4 μg/ml): 25% | IC50 ([2]; calculated on dose-effects lines, read-out: MSV-M foci ID 50 (Inhibiting Dose 50%)): 0.052 µg/mL (≈ 0.0825 µM) | activity at 0.0062 µg/mL ([2]; dose 0.0062 μg/ml, foci counted 5 days after infection, read-out: MSV-M No. of foci): 75% | activity at 0.025 µg/mL ([2]; dose 0.0250 μg/ml, foci counted 5 days after infection, read-out: MSV-M No. of foci): 73% | activity at 0.1 µg/mL ([2]; dose 0.1 μg/ml, foci counted 5 days after infection, read-out: MSV-M No. of foci): 21% | activity at 0.4 µg/mL ([2]; dose 0.4 μg/ml, foci counted 5 days after infection, read-out: MSV-M No. of foci): 0% | T/C (median survival time, % over untreated controls) (ascites Sarcoma 180; [4]): 106% | % LTS (ascites Sarcoma 180; [4]): 0% | LTS (Long Term Survivors after 60 days) (ascites Sarcoma 180; [4]): 0/10 | Toxic Deaths (ascites Sarcoma 180; 0.2 mg./kg. i.p.): 0/10 | T/C (median survival time, % over untreated controls) (ascites Sarcoma 180; [5]): 103% | % LTS (ascites Sarcoma 180; [5]): 0% | LTS (Long Term Survivors after 60 days) (ascites Sarcoma 180; [5]): 0/10 | Toxic Deaths (ascites Sarcoma 180; 1 mg./kg. i.p.): 0/10 | T/C (median survival time, % over untreated controls) (ascites Sarcoma 180; [6]): 124% | % LTS (ascites Sarcoma 180; [6]): 0% | LTS (Long Term Survivors after 60 days) (ascites Sarcoma 180; [6]): 0/10 | Toxic Deaths (ascites Sarcoma 180; 5 mg./kg. i.p.): 0/10 | T/C (median survival time, % over untreated controls) (ascites Sarcoma 180; [7]): 181% | % LTS (ascites Sarcoma 180; [7]): 0% | LTS (Long Term Survivors after 60 days) (ascites Sarcoma 180; [7]): 0/10 | Toxic Deaths (ascites Sarcoma 180; 12.5 mg./kg. i.p.): 0/10 | T/C (median survival time, % over untreated controls) (ascites Sarcoma 180; [8]): 187% | % LTS (ascites Sarcoma 180; [8]): 20% | LTS (Long Term Survivors after 60 days) (ascites Sarcoma 180; [8]): 4/20 | Toxic Deaths (ascites Sarcoma 180; 25 mg./kg. i.p.): 0/20 | T/C (median survival time, % over untreated controls) (ascites Sarcoma 180; [9]): 175% | % LTS (ascites Sarcoma 180; [9]): 23% | LTS (Long Term Survivors after 60 days) (ascites Sarcoma 180; [9]): 4/17 | Toxic Deaths (ascites Sarcoma 180; 50 mg./kg. i.p.): 0/17 | T/C (median survival time, % over untreated controls) (ascites Sarcoma 180; [10]): 170% | % LTS (ascites Sarcoma 180; [10]): 0% | LTS (Long Term Survivors after 60 days) (ascites Sarcoma 180; [10]): 0/10 | Toxic Deaths (ascites Sarcoma 180; 75 mg./kg. i.p.): 1/10 | T/C (median survival time, % over untreated controls) (ascites Sarcoma 180; [11]): 83% | % LTS (ascites Sarcoma 180; [11]): 0% | LTS (Long Term Survivors after 60 days) (ascites Sarcoma 180; [11]): 0/7 | Toxic Deaths (ascites Sarcoma 180; 100 mg./kg. i.p.): 3/7 | T/C (median survival time, % over untreated controls) (ascites Sarcoma 180; [12]): 25% | % LTS (ascites Sarcoma 180; [12]): 0% | LTS (Long Term Survivors after 60 days) (ascites Sarcoma 180; [12]): 0/7 | Toxic Deaths (ascites Sarcoma 180; 200 mg./kg. i.p.): 7/7 | mortality ([3]; 0.2 mg./kg. i.p.): 0% | mortality ([3]; 1 mg./kg. i.p.): 0% | mortality ([3]; 5 mg./kg. i.p.): 0% | mortality ([3]; 12.5 mg./kg. i.p.): 0% | mortality ([3]; 25 mg./kg. i.p.): 0% | mortality ([3]; 50 mg./kg. i.p.): 0% | mortality ([3]; 75 mg./kg. i.p.): 10% | mortality ([3]; 100 mg./kg. i.p.): 42% | mortality ([3]; 200 mg./kg. i.p.): 100% | Tumor Volume T/C % (Solid Sarcoma 180; [13]): 82% | Toxic Deaths (Solid Sarcoma 180; [13]): 1/5 | Tumor Volume T/C % (Solid Sarcoma 180; [14]): 66% | Toxic Deaths (Solid Sarcoma 180; [14]): 1/5 | Tumor Volume T/C % (Solid Sarcoma 180; [15]): 44% | Toxic Deaths (Solid Sarcoma 180; [15]): 0/5 | inhibition of tumor growth on solid Sarcoma 180 (Solid Sarcoma 180; at non-toxic doses): marked inhibition of tumor growth, at non-toxic doses
